Values of other authors, collected in patent US20020035037A1, “CONTROL OF SCLEROTIUM CEPIVORUM IN ALLIUM PLANTS” (priority 1991, published 2002).

System: Sclerotium cepivorum
Conditions: iprodione 125 g/kg seed as seed treatment; procymidon 4-6 kg/ha as soil treatment; particularly with heavy infestation

| SMILES | effectiveness of control of Sclerotium cepivorum |
| --- | --- |
| CC(C)NC(=O)N1CC(=O)N(c2cc(Cl)cc(Cl)c2)C1=O [iprodione] | not effective |
| CC12CC1(C)C(=O)N(c1cc(Cl)cc(Cl)c1)C2=O (centres unmarked) [procymidon] | not effective |
